Results published in article PMC9005681, “Use of AD Informer Set compounds to explore validity of novel targets in Alzheimer's disease pathology” (Alzheimer's & Dementia : Translational Research & Clinical …, 2022).

What was measured:
Experiment in all cases: PDSP GPCR panel primary binding assays at 10 μM
[1] = molecular target: T1, cloned human or rodent CNS receptors, channels, and transporters (PDSP panel) (Homo sapiens, UniProt P35367); details: Receptor H1, primary assay, 10 μM
T1 construct: expressed in transfected cells
T1 sequence (P35367 whole entry): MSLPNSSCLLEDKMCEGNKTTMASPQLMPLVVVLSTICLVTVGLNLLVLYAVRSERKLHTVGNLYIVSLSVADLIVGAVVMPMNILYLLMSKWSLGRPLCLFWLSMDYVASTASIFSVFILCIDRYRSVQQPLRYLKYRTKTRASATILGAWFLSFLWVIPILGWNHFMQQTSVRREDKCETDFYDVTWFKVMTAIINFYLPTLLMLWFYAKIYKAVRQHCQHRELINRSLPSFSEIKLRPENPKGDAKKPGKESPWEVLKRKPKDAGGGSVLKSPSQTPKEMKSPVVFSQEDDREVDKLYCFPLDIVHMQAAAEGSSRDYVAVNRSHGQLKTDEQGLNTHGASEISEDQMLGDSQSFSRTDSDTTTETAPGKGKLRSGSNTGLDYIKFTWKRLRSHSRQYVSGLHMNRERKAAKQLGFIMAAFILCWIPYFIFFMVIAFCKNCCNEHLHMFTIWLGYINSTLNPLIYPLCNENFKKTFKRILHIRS
Summary of the method: (§1)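 Radioligand displacement at cloned human or rodent CNS targets: 46–47 primary binding assays run in quadruplicate at 10 μM. Targets where the compound displaced an average of >50% of radiolabeled standard ligand went to secondary binding in 11-point dose-response, in triplicate; none run for H3, PBR or GABAA.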

[2] = molecular target: T2, cloned human or rodent CNS receptors, channels, and transporters (PDSP panel) (Homo sapiens, UniProt P34969); details: Receptor 5-HT7A, primary assay, 10 μM; for Mean %: mean of Inhibition 1-4
T2 construct: expressed in transfected cells
T2 sequence (P34969 whole entry): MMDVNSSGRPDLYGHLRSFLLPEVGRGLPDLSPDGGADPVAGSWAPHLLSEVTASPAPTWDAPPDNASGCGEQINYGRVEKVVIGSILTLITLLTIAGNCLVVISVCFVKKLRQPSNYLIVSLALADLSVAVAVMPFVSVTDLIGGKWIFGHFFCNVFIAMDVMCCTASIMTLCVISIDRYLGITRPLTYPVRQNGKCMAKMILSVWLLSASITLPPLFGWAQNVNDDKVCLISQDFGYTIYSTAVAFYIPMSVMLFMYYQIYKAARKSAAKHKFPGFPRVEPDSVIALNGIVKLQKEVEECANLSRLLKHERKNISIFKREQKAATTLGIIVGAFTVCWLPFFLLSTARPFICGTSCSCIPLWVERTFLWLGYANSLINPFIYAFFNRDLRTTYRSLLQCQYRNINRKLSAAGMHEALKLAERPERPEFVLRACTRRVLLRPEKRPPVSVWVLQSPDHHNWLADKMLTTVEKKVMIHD
Summary of the method: as §1

[3] = molecular target: T3, cloned human or rodent CNS receptors, channels, and transporters (PDSP panel) (Homo sapiens, UniProt P11229); details: Receptor M1, primary assay, 10 μM; for Mean %: mean of Inhibition 1-4
T3 construct: expressed in transfected cells
T3 sequence (P11229 1-460): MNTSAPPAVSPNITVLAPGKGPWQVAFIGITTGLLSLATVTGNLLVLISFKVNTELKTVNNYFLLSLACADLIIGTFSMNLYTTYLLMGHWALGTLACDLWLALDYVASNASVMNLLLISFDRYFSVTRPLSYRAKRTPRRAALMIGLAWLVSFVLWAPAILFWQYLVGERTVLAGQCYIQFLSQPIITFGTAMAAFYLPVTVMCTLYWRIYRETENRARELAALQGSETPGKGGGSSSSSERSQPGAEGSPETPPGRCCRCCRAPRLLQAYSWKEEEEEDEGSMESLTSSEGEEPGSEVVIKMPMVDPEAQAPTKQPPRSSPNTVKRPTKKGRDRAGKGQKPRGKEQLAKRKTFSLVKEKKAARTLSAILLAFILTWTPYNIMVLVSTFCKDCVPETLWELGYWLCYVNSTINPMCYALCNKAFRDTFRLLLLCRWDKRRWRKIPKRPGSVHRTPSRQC
Summary of the method: as §1

[4] = molecular target: T4, cloned human or rodent CNS receptors, channels, and transporters (PDSP panel) (Homo sapiens, UniProt P21917); details: Receptor D4, primary assay, 10 μM; for Mean %: mean of Inhibition 1-4
T4 construct: expressed in transfected cells
T4 sequence (P21917 1-419): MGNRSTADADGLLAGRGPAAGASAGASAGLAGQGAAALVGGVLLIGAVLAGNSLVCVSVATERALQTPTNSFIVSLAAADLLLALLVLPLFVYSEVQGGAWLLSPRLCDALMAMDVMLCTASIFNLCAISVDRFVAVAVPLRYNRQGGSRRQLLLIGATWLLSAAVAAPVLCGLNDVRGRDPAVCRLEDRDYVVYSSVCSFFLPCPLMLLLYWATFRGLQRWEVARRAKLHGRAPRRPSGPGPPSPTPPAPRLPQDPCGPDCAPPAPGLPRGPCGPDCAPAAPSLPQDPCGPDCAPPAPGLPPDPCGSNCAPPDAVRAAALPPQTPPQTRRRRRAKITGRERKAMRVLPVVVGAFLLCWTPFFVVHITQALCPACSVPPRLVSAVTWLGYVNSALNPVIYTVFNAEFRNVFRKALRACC
Summary of the method: as §1

[5] = molecular target: T5, cloned human or rodent CNS receptors, channels, and transporters (PDSP panel) (Homo sapiens, UniProt P47898); details: Receptor 5-HT5A, primary assay, 10 μM; for Mean %: mean of Inhibition 1-4
T5 construct: expressed in transfected cells
T5 sequence (P47898 whole entry): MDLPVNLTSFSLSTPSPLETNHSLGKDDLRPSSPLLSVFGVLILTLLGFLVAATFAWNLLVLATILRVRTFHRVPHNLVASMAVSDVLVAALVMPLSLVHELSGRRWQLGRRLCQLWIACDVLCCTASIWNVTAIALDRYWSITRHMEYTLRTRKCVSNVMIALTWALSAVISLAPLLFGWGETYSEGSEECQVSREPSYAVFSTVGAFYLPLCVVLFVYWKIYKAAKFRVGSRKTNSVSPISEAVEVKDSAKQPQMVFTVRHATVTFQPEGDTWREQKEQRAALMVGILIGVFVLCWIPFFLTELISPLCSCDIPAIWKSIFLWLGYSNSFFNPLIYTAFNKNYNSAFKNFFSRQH
Summary of the method: as §1

[6] = molecular target: T6, cloned human or rodent CNS receptors, channels, and transporters (PDSP panel) (Homo sapiens, UniProt P28223); details: Receptor 5-HT2A, primary assay, 10 μM; for Mean %: mean of Inhibition 1-4
T6 construct: expressed in transfected cells
T6 sequence (P28223 whole entry): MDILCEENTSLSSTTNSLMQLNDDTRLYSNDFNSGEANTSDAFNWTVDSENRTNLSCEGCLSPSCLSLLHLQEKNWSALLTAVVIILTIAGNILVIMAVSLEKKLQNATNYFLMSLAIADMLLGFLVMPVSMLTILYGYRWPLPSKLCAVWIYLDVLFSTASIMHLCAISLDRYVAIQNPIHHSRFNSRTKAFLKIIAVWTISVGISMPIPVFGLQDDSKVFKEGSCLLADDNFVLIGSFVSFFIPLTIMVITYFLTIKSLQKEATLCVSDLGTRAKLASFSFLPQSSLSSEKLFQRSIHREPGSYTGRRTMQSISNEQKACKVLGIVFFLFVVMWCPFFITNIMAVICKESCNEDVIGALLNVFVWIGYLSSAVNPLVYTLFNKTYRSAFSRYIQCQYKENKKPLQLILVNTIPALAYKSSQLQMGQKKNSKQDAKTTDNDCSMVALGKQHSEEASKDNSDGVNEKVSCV
Summary of the method: as §1

[7] = molecular target: T7, cloned human or rodent CNS receptors, channels, and transporters (PDSP panel) (Homo sapiens, UniProt P28566); details: Receptor 5-HT1E, primary assay, 10 μM; for Mean %: mean of Inhibition 1-4
T7 construct: expressed in transfected cells
T7 sequence (P28566 whole entry): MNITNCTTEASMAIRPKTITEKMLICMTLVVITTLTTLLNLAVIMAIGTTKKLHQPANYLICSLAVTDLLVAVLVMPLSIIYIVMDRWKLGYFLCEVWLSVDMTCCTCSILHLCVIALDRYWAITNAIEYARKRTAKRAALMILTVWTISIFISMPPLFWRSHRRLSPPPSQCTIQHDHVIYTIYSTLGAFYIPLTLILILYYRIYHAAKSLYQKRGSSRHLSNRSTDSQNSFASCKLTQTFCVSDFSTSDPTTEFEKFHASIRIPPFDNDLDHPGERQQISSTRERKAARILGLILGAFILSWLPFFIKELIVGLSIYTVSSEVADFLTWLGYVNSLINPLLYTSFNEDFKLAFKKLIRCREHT
Summary of the method: as §1

[8] = molecular target: T8, cloned human or rodent CNS receptors, channels, and transporters (PDSP panel) (Homo sapiens, UniProt P41145); details: Receptor KOR, primary assay, 10 μM; for Mean %: mean of Inhibition 1-4
T8 construct: expressed in transfected cells
T8 sequence (P41145 whole entry): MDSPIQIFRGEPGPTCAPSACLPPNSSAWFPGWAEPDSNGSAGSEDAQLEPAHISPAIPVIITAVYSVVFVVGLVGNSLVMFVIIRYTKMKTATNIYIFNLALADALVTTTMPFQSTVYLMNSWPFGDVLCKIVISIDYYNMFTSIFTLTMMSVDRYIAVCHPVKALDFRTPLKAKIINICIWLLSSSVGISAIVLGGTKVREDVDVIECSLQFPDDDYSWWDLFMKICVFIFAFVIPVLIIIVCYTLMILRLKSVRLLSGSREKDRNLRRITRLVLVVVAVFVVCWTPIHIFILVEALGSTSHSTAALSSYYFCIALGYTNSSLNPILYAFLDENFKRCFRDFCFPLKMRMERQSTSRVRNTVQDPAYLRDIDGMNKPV
Summary of the method: as §1

[9] = molecular target: T9, cloned human or rodent CNS receptors, channels, and transporters (PDSP panel) (Homo sapiens, UniProt P25021); details: Receptor H2, primary assay, 10 μM; for Mean %: mean of Inhibition 1-4
T9 construct: expressed in transfected cells
T9 sequence (P25021 whole entry): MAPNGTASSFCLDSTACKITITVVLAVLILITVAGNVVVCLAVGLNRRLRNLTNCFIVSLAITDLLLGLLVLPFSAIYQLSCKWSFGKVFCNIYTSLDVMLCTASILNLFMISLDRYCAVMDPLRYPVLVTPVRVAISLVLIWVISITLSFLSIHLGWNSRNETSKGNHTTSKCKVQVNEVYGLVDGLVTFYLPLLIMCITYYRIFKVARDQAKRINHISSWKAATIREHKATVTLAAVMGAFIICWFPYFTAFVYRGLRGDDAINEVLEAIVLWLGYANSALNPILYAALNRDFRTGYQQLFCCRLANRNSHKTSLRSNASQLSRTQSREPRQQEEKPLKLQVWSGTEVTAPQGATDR
Summary of the method: as §1

[10] = molecular target: T10, cloned human or rodent CNS receptors, channels, and transporters (PDSP panel) (Homo sapiens, UniProt P35372); details: Receptor MOR, primary assay, 10 μM; for Mean %: mean of Inhibition 1-4
T10 construct: expressed in transfected cells
T10 sequence (P35372 whole entry): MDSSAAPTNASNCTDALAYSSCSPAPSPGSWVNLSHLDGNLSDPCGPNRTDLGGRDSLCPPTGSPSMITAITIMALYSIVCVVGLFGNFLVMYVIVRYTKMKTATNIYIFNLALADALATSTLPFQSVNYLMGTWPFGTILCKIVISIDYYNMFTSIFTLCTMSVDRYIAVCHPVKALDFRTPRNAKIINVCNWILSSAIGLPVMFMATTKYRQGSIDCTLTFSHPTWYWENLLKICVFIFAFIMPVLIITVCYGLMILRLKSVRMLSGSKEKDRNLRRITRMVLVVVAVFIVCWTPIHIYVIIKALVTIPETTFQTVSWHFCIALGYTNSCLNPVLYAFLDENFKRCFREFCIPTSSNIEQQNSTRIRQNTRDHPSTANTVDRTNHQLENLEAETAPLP
Summary of the method: as §1

`CCCCNc1ncc2c(-c3ccc(CN4CCN(C)CC4)cc3)cn([C@H]3CC[C@H](O)CC3)c2n1` [UNC2025C, UNC2025] was tested. Which “Inhibition 1” value [1] did it give?
The value was 34.93%.

What about the “Inhibition 2” value [1] of the same compound?
Its value is 33.32%.

What about the “Inhibition 3” value [1] of the same compound?
Its value is 29.49%.

What about the “Inhibition 4” value [1] of the same compound?
Its value is 24.93%.

What about the Mean % ([1]; mean of Inhibition 1-4) of the same compound?
The Mean % was 30.67%.

What about the “Inhibition 1” value [2] of the same compound?
The value was 13.62%.

And the “Inhibition 2” value [2]?
Its value is -19.4%.

What about the “Inhibition 3” value [2] of the same compound?
The value was -17.29%.

And the “Inhibition 4” value [2]?
Its value is -17.42%.

And the Mean % [2]?
The Mean % was -10.12%.

What about the “Inhibition 1” value [3] of the same compound?
The value was 58.8%.

What about the “Inhibition 2” value [3] of the same compound?
Its value is 42.24%.

And the “Inhibition 3” value [3]?
Its value is 30.2%.

And the “Inhibition 4” value [3]?
The value was 36.41%.

And the Mean % [3]?
Its Mean % is 41.91%.

What about the “Inhibition 1” value [4] of the same compound?
The value was 1.91%.

And the “Inhibition 2” value [4]?
The value was -16.35%.

And the “Inhibition 3” value [4]?
Its value is 0.67%.

And the “Inhibition 4” value [4]?
Its value is 12.24%.

What about the Mean % [4] of the same compound?
The Mean % was -0.38%.

And the “Inhibition 1” value [5]?
Its value is 24.59%.

And the “Inhibition 2” value [5]?
Its value is 14.3%.

And the “Inhibition 3” value [5]?
The value was 9.95%.

And the “Inhibition 4” value [5]?
Its value is 29.74%.

And the Mean % [5]?
Its Mean % is 19.65%.

What about the “Inhibition 1” value [6] of the same compound?
The value was 90.4%.

And the “Inhibition 2” value [6]?
Its value is 85.14%.

And the “Inhibition 3” value [6]?
The value was 80.37%.

What about the “Inhibition 4” value [6] of the same compound?
Its value is 89.25%.

And the Mean % [6]?
The Mean % was 86.29%.

What about the “Inhibition 1” value [7] of the same compound?
Its value is 4.71%.

And the “Inhibition 2” value [7]?
Its value is -8.74%.

What about the “Inhibition 3” value [7] of the same compound?
Its value is 0.13%.

What about the “Inhibition 4” value [7] of the same compound?
Its value is -9.18%.

What about the Mean % [7] of the same compound?
Its Mean % is -3.27%.

What about the “Inhibition 1” value [8] of the same compound?
The value was -17.91%.

And the “Inhibition 2” value [8]?
The value was -11.2%.

What about the “Inhibition 3” value [8] of the same compound?
The value was -40.41%.

What about the “Inhibition 4” value [8] of the same compound?
The value was -19.03%.

What about the Mean % [8] of the same compound?
Its Mean % is -22.14%.

And the “Inhibition 1” value [9]?
The value was 36.84%.

And the “Inhibition 2” value [9]?
Its value is 35.2%.

What about the “Inhibition 3” value [9] of the same compound?
Its value is 22.04%.

And the “Inhibition 4” value [9]?
Its value is 12.62%.

What about the Mean % [9] of the same compound?
The Mean % was 26.68%.

And the “Inhibition 1” value [10]?
The value was 9.74%.

And the “Inhibition 2” value [10]?
The value was 12.91%.

And the “Inhibition 3” value [10]?
Its value is 2.36%.

What about the “Inhibition 4” value [10] of the same compound?
Its value is 6.67%.

What about the Mean % [10] of the same compound?
Its Mean % is 7.92%.

How did the “Inhibition 1” value [2] turn out when `c1cn2cc(-c3ccc4cn[nH]c4c3)nc(Nc3ccc(N4CCOCC4)cc3)c2n1` [UNC10302678A, Entospletinib (GS-9973)] was run?
Its value is 7.05%.

And the “Inhibition 2” value [2]?
The value was 11.23%.

What about the “Inhibition 3” value [2] of the same compound?
The value was 9.37%.

And the “Inhibition 4” value [2]?
The value was 35.72%.

And the Mean % [2]?
Its Mean % is 15.84%.

And the “Inhibition 1” value [3]?
The value was 19.66%.

And the “Inhibition 2” value [3]?
Its value is -3.67%.

And the “Inhibition 3” value [3]?
The value was -8.18%.

And the “Inhibition 4” value [3]?
The value was 2.73%.

What about the Mean % [3] of the same compound?
Its Mean % is 2.64%.

And the “Inhibition 1” value [4]?
The value was 5.16%.

And the “Inhibition 2” value [4]?
The value was 7.36%.

And the “Inhibition 3” value [4]?
Its value is -2.39%.

And the “Inhibition 4” value [4]?
Its value is 2.39%.

What about the Mean % [4] of the same compound?
Its Mean % is 3.13%.

And the “Inhibition 1” value [5]?
The value was 7.17%.

And the “Inhibition 2” value [5]?
Its value is -43.49%.

What about the “Inhibition 3” value [5] of the same compound?
Its value is -3.12%.

And the “Inhibition 4” value [5]?
Its value is -6.68%.

What about the Mean % [5] of the same compound?
Its Mean % is -11.53%.

And the “Inhibition 1” value [6]?
The value was -1.01%.

And the “Inhibition 2” value [6]?
The value was -14.98%.

And the “Inhibition 3” value [6]?
Its value is -19.59%.

What about the “Inhibition 4” value [6] of the same compound?
Its value is -10.22%.

And the Mean % [6]?
Its Mean % is -11.45%.

And the “Inhibition 1” value [7]?
The value was -2.53%.

And the “Inhibition 2” value [7]?
The value was -10.95%.

And the “Inhibition 3” value [7]?
Its value is -16.42%.

What about the “Inhibition 4” value [7] of the same compound?
Its value is -0.46%.

What about the Mean % [7] of the same compound?
Its Mean % is -7.59%.

What about the “Inhibition 1” value [8] of the same compound?
The value was -28.1%.

And the “Inhibition 2” value [8]?
Its value is -33.36%.

What about the “Inhibition 3” value [8] of the same compound?
The value was -49.37%.

What about the “Inhibition 4” value [8] of the same compound?
Its value is -45.23%.

What about the Mean % [8] of the same compound?
Its Mean % is -39.02%.

What about the “Inhibition 1” value [9] of the same compound?
Its value is 34.86%.

What about the “Inhibition 2” value [9] of the same compound?
Its value is 31.07%.

And the “Inhibition 3” value [9]?
The value was 0.58%.

And the “Inhibition 4” value [9]?
The value was -19.99%.

And the Mean % [9]?
Its Mean % is 11.63%.

What about the “Inhibition 1” value [10] of the same compound?
Its value is -0.9%.

What about the “Inhibition 2” value [10] of the same compound?
The value was 12.23%.

What about the “Inhibition 3” value [10] of the same compound?
The value was 5.91%.

And the “Inhibition 4” value [10]?
Its value is -3.58%.

What about the Mean % [10] of the same compound?
The Mean % was 3.42%.
